Patent publication US20100137275A1 (IPSEN PHARMA S.A.S., priority 2007, published 2010)

Legend:
[1] = biological target: T1, purified recombinant Cdc25-C enzyme (MBP-Cdc25C protein) (Homo sapiens, UniProt P30307); experiment: Phosphatase activity of the purified recombinant Cdc25C enzyme (OMFP dephosphorylation, fluorescence); assay type: biochemical; settings: OMFP 500 μM, 4 hours at 30° C.
T1 construct: made in house
T1 sequence (P30307 1-473): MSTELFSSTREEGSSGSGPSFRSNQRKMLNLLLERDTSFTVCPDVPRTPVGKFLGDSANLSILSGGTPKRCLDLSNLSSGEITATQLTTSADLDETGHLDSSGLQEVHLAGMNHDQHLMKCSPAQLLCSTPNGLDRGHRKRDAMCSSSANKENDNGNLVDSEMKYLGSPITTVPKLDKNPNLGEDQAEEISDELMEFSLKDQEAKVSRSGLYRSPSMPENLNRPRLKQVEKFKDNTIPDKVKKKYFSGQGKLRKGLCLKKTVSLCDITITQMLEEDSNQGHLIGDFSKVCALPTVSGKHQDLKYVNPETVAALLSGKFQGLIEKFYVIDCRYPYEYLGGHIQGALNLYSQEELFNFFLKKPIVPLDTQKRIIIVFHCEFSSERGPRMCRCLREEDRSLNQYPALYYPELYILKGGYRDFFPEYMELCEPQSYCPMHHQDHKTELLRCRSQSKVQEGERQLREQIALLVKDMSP
Experimental: The phosphatase activity of the MBP-Cdc25C protein is evaluated through its dephosphorylation of 3-O-methylfluorescein-phosphate (OMFP) to form 3-O-methylfluorescein (OMF), determining the fluorescence of the reaction product at 475 nm. This assay can be used to identify inhibitors of the recombinant Cdc25 enzyme. The preparation of the MBP-Cdc25C fusion protein is described in patent application PCT WO 01/44467.
The reaction is performed in 384-well plates in a final volume of 50 μl. The MBP-Cdc25C protein (prepared as described hereinabove) is stored in the following elution buffer: 20 mM Tris-HCl pH 7.4; 250 mM NaCl; 1 mM EDTA; 1 mM dithiothreitol (DTT); 10 mM maltose. It is diluted to a concentration of 60 μM in the following reaction buffer: 50 mM Tris-HCl pH 8.2; 50 mM NaCl; 1 mM DTT; 20% glycerol. The background noise is determined using with the buffer without addition of the enzyme. The products are tested at decreasing concentrations from 40 μM. The reaction is initiated by the addition of a solution OMFP to a final concentration of 500 μM (prepared immediately before use from a 12.5 mM stock solution in 100% DMSO (Sigma #M2629)). After 4 hours at 30° C. in a disposable 384-well plate, the fluorescence measured at OD 475 nm is read on a Victor^2 plate reader (EGG-Wallac). The concentration that produces 50% inhibition of the enzyme reaction is calculated from three independent experiments. Only the values that fall within the linear part of the sigmoid curve are used for the linear regression analysis.

[2] = tested on: Mia-PaCa2 (human pancreas cancer cells); experiment: Anti-proliferative activity on Mia-Paca2 cell line (WST1 colorimetric test); assay type: cell-based; settings: MIA PaCa-2, 96 h, 96 hours treatment, read-out: IC50 on proliferation of the Mia-Paca2 cell line
Experimental: (§1) By way of an example, the effect of treating two human cell lines Mia-Paca2 and DU145 with the compounds of the examples described hereinbefore will be studied. The cell lines DU145 (human prostate cancer cells) and Mia-PaCa2 (human pancreas cancer cells) were obtained from the American Tissue Culture Collection (Rockville, Md., USA). A 96-well plate was inoculated on day 0 with cells placed in 80 μl of Dulbecco's modified Eagle's medium (Gibco-Brl, Cergy-Pontoise, France) with 10% heat-inactivated foetal calf serum (Gibco-Brl, Cergy-Pontoise, France), 50000 units/1 of penicillin and 50 mg/l of streptomycin (Gibco-Brl, Cergy-Pontoise, France), and 2 mM of glutamine (Gibco-Brl, Cergy-Pontoise, France). The cells were treated on day 1 with increasing concentrations of each test compound up to 10 μM for 96 hours. At the end of this period, cell proliferation is quantified by means of a colorimetric test based on cleavage of the tetrazolium salt WST1 by the mitochondrial dehydrogenases in the viable cells, resulting in formation of formazan (Boehringer Mannheim, Meylan, France). These tests are performed in duplicate with 8 determinations per concentration tested. For each compound to be tested, the values within the linear part of the sigmoid curve were subjected to linear regression analysis and used to estimate the IC50 inhibitory concentration. The products are solubilised in dimethylsulfoxide (DMSO) at a concentration of 10^−2 M and used in culture with a final DMSO concentration of 0.1%.

[3] = tested on: DU145 (human prostate cancer cells); experiment: Anti-proliferative activity on DU-145 cell line (WST1 colorimetric test); assay type: cell-based; settings: DU-145, 96 h, 96 hours treatment, read-out: IC50 on the proliferation of the DU-145 cell line
Experimental: as §1

| SMILES | IC50 [1] | IC50 [2] | melting point | IC50 [3] |
| --- | --- | --- | --- | --- |
| CN(CCNc1cc(N2CCCC2)nc(N2CCCC2)n1)CCNS(=O)(=O)c1ccc([N+](=O)[O-])cc1 [Example 87, N-{2-[{2-[(2,6-dipyrrolidin-1-ylpyrimidin-4-yl)amino]ethyl}(methyl)amino]ethyl}-4-nitrobenzenesulfonamide] | ≤ 1 µM | ≤ 5 µM | 144 to 145 °C |  |
| CN(C)CCN(C)c1cc(NCCN(C)CCNC(=S)Nc2ccc(Cl)cc2)nc(N(C)CCN(C)C)n1 [Example 64, N-{2-[[2-({2,6-bis[[2-(dimethylamino)ethyl](methyl)amino]pyrimidin-4-yl}amino)ethyl](methyl)amino]ethyl}-N′-(4-chlorophenyl)thiourea] | ≤ 5 µM | ≤ 5 µM |  |  |
| CN(CCNC(=S)Nc1ccc(-c2cnco2)cc1)CCNc1cc(N2CCCC2)nc(N2CCCC2)n1 [Example 33, N-{2-[{2-[(2,6-dipyrrolidin-1-ylpyrimidin-4-yl)amino]ethyl}(methyl)amino]ethyl}-N′-[4-(1,3-oxazol-5-yl)phenyl]thiourea] | ≤ 5 µM |  | 104 to 106 °C | ≤ 5 µM |
| CN(CCNC(=S)Nc1ccc(F)cc1)CCNc1cc(N2CCCC2)nc(N2CCCC2)n1 [Example 24, N-{2-[{2-[(2,6-dipyrrolidin-1-ylpyrimidin-4-yl)amino]ethyl}(methyl)amino]ethyl}-N′-(4-fluorophenyl)thiourea] | ≤ 5 µM |  | 115 to 117 °C | ≤ 5 µM |
| CC(Oc1ccccc1)C(=O)NCCN(C)CCNc1cc(N2CCCC2)nc(N2CCCC2)n1 (stereo not shown) [Example 84, N-{2-[{2-[(2,6-dipyrrolidin-1-ylpyrimidin-4-yl)amino]ethyl}(methyl)amino]ethyl}-2-phenoxypropanamide] | ≤ 5 µM | ≤ 5 µM | 110 to 112 °C |  |
| CSc1ccc(NC(=S)NCCN(C)CCNc2cc(N3CCCC3)nc(N3CCCC3)n2)cc1 [Example 51, N-{2-[{2-[(2,6-dipyrrolidin-1-ylpyrimidin-4-yl)amino]ethyl}(methyl)amino]ethyl}-N′-[4-(methylthio)phenyl]thiourea] | ≤ 1 µM |  | 67 to 69 °C | ≤ 5 µM |
| CN(CCNC(=S)Nc1ccc(Oc2ccccc2)nc1)CCNc1cc(N2CCCC2)nc(N2CCCC2)n1 [Example 30, N-{2-[{2-[(2,6-dipyrrolidin-1-ylpyrimidin-4-yl)amino]ethyl}(methyl)amino]ethyl}-N′-(6-phenoxypyridin-3-yl)thiourea] | ≤ 5 µM |  | 104 to 106 °C | ≤ 5 µM |
| CN(CCNC(=O)Nc1cccs1)CCNc1cc(N2CCCC2)nc(N2CCCC2)n1 [Example 10, N-{2-[{2-[(2,6-dipyrrolidin-1-ylpyrimidin-4-yl)amino]ethyl}(methyl)amino]ethyl}-N′-2-thienylurea] | ≤ 1 µM |  | 133 to 135 °C | ≤ 5 µM |
| CN(CCNC(=O)C1CCN(c2nccc(C(F)(F)F)n2)CC1)CCNc1cc(N2CCCC2)nc(N2CCCC2)n1 [Example 86, N-{2-[{2-[(2,6-dipyrrolidin-1-ylpyrimidin-4-yl)amino]ethyl}(methyl)amino]ethyl}-1-[4-(trifluoromethyl)pyrimidin-2-yl]piperidine-4-carboxamide] | ≤ 5 µM | ≤ 5 µM | 171 to 173 °C |  |
| CCNc1cc(NCCN(C)CCNC(=S)Nc2ccc(Cl)cc2)nc(NCC)n1 [Example 79, N-{2-[(2-{[2,6-bis(ethylamino)pyrimidin-4-yl]amino}ethyl)(methyl)amino]ethyl}-N′-(4-chlorophenyl)thiourea] |  | ≤ 5 µM | 142 to 144 °C |  |
| CN(CCNC(=S)NCc1ccco1)CCNc1cc(N2CCCC2)nc(N2CCCC2)n1 [Example 29, N-{2-[{2-[(2,6-dipyrrolidin-1-ylpyrimidin-4-yl)amino]ethyl}(methyl)amino]ethyl}-N′-(2-furylmethyl)thiourea] | ≤ 5 µM | ≤ 5 µM |  | ≤ 5 µM |
| CN(CCNC(=S)Nc1ccc(Oc2ccccc2)cc1)CCNc1cc(N2CCCC2)nc(N2CCCC2)n1 [Example 36, N-{2-[{2-[(2,6-dipyrrolidin-1-ylpyrimidin-4-yl)amino]ethyl}(methyl)amino]ethyl}-N′-(4-phenoxyphenyl)thiourea] | ≤ 5 µM |  | 79 to 81 °C | ≤ 5 µM |
| CN(CCNC(=S)Nc1ccc(N(C)C)cc1)CCNc1cc(N2CCCC2)nc(N2CCCC2)n1 [Example 76, N-[4-(dimethylamino)phenyl]-N′-{2-[{2-[(2,6-dipyrrolidin-1-ylpyrimidin-4-yl)amino]ethyl}(methyl)amino]ethyl}thiourea] |  | ≤ 5 µM | 127 to 129 °C | ≤ 5 µM |
| CN(CCNC(=S)Nc1cccc2ccccc12)CCNc1cc(N2CCCC2)nc(N2CCCC2)n1 [Example 37, N-{2-[{2-[(2,6-dipyrrolidin-1-ylpyrimidin-4-yl)amino]ethyl}(methyl)amino]ethyl}-N′-1-naphthylthiourea] | ≤ 5 µM |  | 87 to 89 °C | ≤ 5 µM |
| CN(CCNC(=S)Nc1ccc(C(C)(C)C)cc1)CCNc1cc(N2CCCC2)nc(N2CCCC2)n1 [Example 44, N-(4-tert-butylphenyl)-N′-{2-[{2-[(2,6-dipyrrolidin-1-ylpyrimidin-4-yl)amino]ethyl}(methyl)amino]ethyl}thiourea] | ≤ 1 µM |  | 192 to 194 °C | ≤ 5 µM |
| CN(CCNC(=S)Nc1ccc(OC(F)(F)F)cc1)CCNc1cc(N2CCCC2)nc(N2CCCC2)n1 [Example 23, N-{2-[{2-[(2,6-dipyrrolidin-1-ylpyrimidin-4-yl)amino]ethyl}(methyl)amino]ethyl}-N′-[4-(trifluoromethoxy)phenyl]thiourea] | ≤ 5 µM |  | 118 to 120 °C | ≤ 5 µM |
| CN(CCNC(=O)c1cccc2c1-c1ccccc1C2=O)CCNc1cc(N2CCCC2)nc(N2CCCC2)n1 [Example 85, N-{2-[{2-[(2,6-dipyrrolidin-1-ylpyrimidin-4-yl)amino]ethyl}(methyl)amino]ethyl}-9-oxo-9H-fluorene-4-carboxamide] | ≤ 5 µM | ≤ 5 µM | 139 to 140 °C |  |
| CN(CCCNC(=O)Nc1ccc(Cl)c(C(F)(F)F)c1)CCCNc1cc(N2CCCC2)nc(N2CCCC2)n1 [Example 21, N-[4-chloro-3-(trifluoromethyl)phenyl]-N′-{3-[{3-[(2,6-dipyrrolidin-1-ylpyrimidin-4-yl)amino]propyl}(methyl)amino]propyl}urea] | ≤ 5 µM | ≤ 5 µM |  | ≤ 5 µM |
| CN(CCNC(=S)Nc1cccnc1)CCNc1cc(N2CCCC2)nc(N2CCCC2)n1 [Example 26, N-{2-[{2-[(2,6-dipyrrolidin-1-ylpyrimidin-4-yl)amino]ethyl}(methyl)amino]ethyl}-N′-pyridin-3-ylthiourea] | ≤ 1 µM | ≤ 5 µM | 107 to 109 °C |  |
